Read-outs that look alike come from different tables or passages of the source.
Columns and labels:
PI3K-α (p110α/p85α) = PI3K-α (p110α/p85α) (Homo sapiens (Human), UniProt P42336); assay: Transcreener KINASE Assay, fluorescent determination of PI3K enzyme activity; assay type: biochemical
Experimental: Inhibition rates were calculated as follow: IH %=(ADP amount under 2% DMSO well−ADP amount under test compound well)/ADP amount under 2% DMSO well×100%.

PI3K-δ (p110δ/p85α) = PI3K-δ (p110δ/p85α) (Homo sapiens (Human), UniProt O00329); assay: as above; assay type: biochemical;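 note: ADP formed by the kinase detected via far-red competitive fluorescence polarization immunoassay after 80 min room-temperature reaction, inhibition relative to 2% DMSO wells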
Chain of PI3K-δ (p110δ/p85α) (O00329 whole entry, species assumed): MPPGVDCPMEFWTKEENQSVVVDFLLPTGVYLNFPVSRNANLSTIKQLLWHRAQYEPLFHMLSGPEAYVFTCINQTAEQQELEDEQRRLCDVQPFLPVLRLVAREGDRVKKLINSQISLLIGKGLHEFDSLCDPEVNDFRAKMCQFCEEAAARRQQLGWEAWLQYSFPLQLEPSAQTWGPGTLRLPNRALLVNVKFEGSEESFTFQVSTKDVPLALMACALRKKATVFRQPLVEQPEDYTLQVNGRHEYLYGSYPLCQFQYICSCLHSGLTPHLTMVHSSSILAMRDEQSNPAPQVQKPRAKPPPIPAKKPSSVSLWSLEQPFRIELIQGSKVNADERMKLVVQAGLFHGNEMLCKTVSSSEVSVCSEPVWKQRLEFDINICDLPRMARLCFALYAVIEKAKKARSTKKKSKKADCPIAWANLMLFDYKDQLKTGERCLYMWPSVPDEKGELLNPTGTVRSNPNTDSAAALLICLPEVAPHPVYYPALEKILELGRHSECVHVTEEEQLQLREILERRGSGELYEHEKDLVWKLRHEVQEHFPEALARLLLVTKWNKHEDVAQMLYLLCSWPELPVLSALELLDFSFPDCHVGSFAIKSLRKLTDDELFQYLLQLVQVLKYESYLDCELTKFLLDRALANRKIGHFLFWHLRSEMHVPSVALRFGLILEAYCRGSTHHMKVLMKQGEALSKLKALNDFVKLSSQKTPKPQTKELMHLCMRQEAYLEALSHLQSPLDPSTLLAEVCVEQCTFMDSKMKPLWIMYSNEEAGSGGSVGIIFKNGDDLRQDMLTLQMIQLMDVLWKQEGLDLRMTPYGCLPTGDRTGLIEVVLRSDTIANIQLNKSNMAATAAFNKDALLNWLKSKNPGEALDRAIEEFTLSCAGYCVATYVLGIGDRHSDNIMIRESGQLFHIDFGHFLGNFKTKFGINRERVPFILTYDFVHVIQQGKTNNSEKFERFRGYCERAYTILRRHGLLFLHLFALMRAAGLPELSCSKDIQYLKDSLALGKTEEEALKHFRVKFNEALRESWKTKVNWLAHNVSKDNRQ
Chain of PI3K-δ (p110δ/p85α) (P27986 whole entry partner, species assumed): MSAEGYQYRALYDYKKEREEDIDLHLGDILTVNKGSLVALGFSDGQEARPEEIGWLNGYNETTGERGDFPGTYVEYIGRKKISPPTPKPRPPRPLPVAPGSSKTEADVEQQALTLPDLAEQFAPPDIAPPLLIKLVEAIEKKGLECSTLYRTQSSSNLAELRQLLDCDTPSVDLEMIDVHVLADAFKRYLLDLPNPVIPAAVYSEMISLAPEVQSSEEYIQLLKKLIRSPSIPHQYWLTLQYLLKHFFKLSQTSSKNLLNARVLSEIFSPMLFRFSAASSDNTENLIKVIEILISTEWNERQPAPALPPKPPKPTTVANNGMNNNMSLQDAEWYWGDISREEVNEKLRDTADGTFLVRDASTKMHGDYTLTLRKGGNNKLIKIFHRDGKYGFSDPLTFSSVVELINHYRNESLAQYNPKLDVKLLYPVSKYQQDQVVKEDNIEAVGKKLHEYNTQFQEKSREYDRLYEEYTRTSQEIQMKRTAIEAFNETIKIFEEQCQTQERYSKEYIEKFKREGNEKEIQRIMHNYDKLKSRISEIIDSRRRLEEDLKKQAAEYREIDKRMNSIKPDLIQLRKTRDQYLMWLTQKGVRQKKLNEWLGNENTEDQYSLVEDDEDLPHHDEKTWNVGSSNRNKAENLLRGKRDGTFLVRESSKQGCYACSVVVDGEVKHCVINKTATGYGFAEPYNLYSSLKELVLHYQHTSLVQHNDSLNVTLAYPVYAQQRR
Experimental: (§1) It is a universal, homogenous, high throughput screening (HTS) technology using a far-red, competitive fluorescence polarization immunoassay based on the detection of ADP to monitor the activity of enzymes that catalyze group transfer reactions. […] The reaction mixture was added into desired wells of a 96-well plate. The plate was sealed and incubated for 80 min at room temperature. • 2) Next, 25 uL ADP detection mix was added into each well. The plate was sealed again and incubated for 60 min at room temperature. Then fluorescence polarization was measured by Tecan Infinite F500 Reader.
(§2) Data was analyzed and IC50 values were generated using the add-in software for Microsoft Excel, Xlfit™ (version 5.3).

PI3K-γ (p110γ) = PI3K-γ (p110γ) (Homo sapiens (Human), UniProt P48736); assay: as above; assay type: biochemical; details: for inhibition at 1 µM: read-out: PI3K-γ IH % (inhibition rate);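 for all read-outs here: ADP produced by p110γ kinase reaction, 80 min at room temperature, detected by far-red fluorescence polarization immunoassay, inhibition relative to 2% DMSO control wells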
Chain of PI3K-γ (p110γ) (P48736 whole entry, species assumed): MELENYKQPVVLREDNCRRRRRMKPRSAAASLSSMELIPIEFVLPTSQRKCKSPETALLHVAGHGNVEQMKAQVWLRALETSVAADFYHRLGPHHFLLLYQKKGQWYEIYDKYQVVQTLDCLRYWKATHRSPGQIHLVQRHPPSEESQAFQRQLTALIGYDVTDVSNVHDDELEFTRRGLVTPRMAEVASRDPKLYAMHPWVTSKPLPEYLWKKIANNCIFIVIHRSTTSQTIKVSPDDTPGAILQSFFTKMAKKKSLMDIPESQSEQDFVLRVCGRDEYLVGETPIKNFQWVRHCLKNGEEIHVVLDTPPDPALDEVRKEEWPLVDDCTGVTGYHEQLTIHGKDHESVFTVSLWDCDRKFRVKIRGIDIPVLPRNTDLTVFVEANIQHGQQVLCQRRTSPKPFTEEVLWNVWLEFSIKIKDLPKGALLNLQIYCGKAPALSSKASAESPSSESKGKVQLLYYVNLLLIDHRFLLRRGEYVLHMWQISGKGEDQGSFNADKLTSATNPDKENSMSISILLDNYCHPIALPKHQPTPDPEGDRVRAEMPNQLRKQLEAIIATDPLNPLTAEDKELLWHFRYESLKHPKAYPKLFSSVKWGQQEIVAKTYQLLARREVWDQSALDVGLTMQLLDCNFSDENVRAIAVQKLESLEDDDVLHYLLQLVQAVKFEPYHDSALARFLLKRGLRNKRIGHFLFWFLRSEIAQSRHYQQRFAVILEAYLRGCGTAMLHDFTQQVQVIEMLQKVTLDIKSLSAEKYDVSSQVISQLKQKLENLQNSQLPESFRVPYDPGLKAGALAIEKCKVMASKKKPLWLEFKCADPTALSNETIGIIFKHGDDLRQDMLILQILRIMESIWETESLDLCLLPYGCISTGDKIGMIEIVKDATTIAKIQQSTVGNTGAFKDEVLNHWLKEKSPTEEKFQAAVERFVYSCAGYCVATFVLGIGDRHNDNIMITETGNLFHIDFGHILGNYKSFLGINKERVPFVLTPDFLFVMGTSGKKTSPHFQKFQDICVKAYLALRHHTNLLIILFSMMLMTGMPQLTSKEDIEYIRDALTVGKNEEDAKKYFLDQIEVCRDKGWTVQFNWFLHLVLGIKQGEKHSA
Experimental: as §1, §2

[1] = tested on: AKT phosphorylation (p-AKT Ser473) in Ramos cells; assay: Inhibition of AKT phosphorylation in Ramos cell line (anti-IgM stimulated); assay type: cell-based; details: Homo sapiens, read-out: IC50, inhibition of AKT phosphorylation
Experimental: 6×10^4/mL Ramos cells (ATCC, CRL-1596; cells were cultured in RPMI1640 media with 10% FBS) were seeded into a 96-well plate (Beckman Dickinson, No. 356692) at 80 uL/well, 4,800 cells/well. After incubation for 3 hr at 37° C. under 5% CO2, Ramos cells were treated with 10 uL/well various concentrations of test compound (final concentrations of the test compound: 1 uM, 0.3 uM, 0.1 uM, 0.037 uM, 0.012 uM, 0.0041 uM, 0.0014 uM and 0.0005 uM) or 0.3% DMSO for 30 min, and then were stimulated with 10 uL/well 1 ug/ml Anti-IgM (Jackson Immunoresearch, 709-006-073) for 15-20 min. • 1) Cells were fixed with 100 μL of 4% pre-warmed Paraformaldehyde (2% final concentration), and incubated for 45 min at room temperature. • 2) The paraformaldehyde solution was removed. 100 μL of ice-cold methanol was added into each well and the plate was left at 4° C. for 30 min. • 3) The cells were washed for three times with 160 μL PBS. • 4) 40 μL 1:350 dilution of Rabbit anti-p-AKT(Ser^473) antibody (Cell Signaling Technology, 4060L) in antibody dilution buffer (1% BSA, in PBS) were added into each well. The plate was inculpated overnight at 4° C. • 5) The cells were washed for 3 times with 160 uL PBS. • 6) 45 μL of Goat anti-rabbit IgG Alexa488 antibody (Invitrogen, A11034) at a 1:1,000 dilution in antibody dilution buffer (1% BSA, in PBS) were added into each well. The plate was covered with foil to keep out of light and was incubated for 90 min at room temperature. • 7) The cells were washed for 3 times with 160 uL PBS. • 8) 50 μL of 1.5 μM Propidium Iodide (Sigma: P4170) solution was added into each well to determine cell number (1.5 mM Propidium iodide stock was diluted with 1:1,000 in PBS, and the final concentration was 1.5 μM). • 9) The plate was incubated at room temperature for 30 min and then was sealed with a cover-seal. • 10) The plate was loaded into the Acumen Explorer and scan with the appropriate instrument settings.
as §2

[2] = tested on: PI3Kδ signaling in basophils; assay: Inhibition of PI3Kδ signaling in basophils from human whole blood; assay type: cell-based; details: read-out: IC50, inhibition of PI3Kδ signaling in basophils
Experimental: Methods • 1) Heparinized human whole blood was mixed and pipetted into the 96 well v-bottom plate, 100 μL per well. • 2) 10 μL of stimulation buffer (1 mg/mL stock, final concentration of Recombinant human IL-3: 20 ng/mL) was added to the whole blood samples of each well and vortex gently. […] Vortex all the wells once more and incubate for 20 min at 37° C. • 5) Labeling with staining antibody: Degranulation was stopped by incubating the samples on ice for 5 min. 6 μL of staining antibody mixture (anti-CD63-FITC and anti-IgE-PE) was added into each well. Vortex and incubate the wells for 20 min in an ice bath, covered to prevent exposure to light. • 6) The whole blood samples were lysed with 300 uL RBC lysis (pre-warmed to room temperature, 20 to 25° C.). Vortex and incubate the samples for 15 min at room temperature. Spin down cells (5 min, 250×g, 4° C.). The supernatant was aspirated leaving approximately 100 μL in each well. • 7) The blood samples were lysed once more as step 6). • 8) Washing: The samples are washed once with 0.5 mL of washing solution. The plate was centrifuged (5 min, 250×g, 4° C.). The supernatant was aspirated leaving approximately 100 μL in each well. The sample in each well was washed and centrifuged once more as above. • 9) 200 μL of fixing solution (1% papraledehyde in 1% BSA/PBS) was added into each well.
as §2

SU-DHL-6 cells = assay: In vitro cell proliferation assay in SU-DHL-6 cell line (CCK-8); assay type: cell-based; details: Homo sapiens, SU-DHL-6, 72 h
Experimental: Growth inhibition assays were carried out using 10% FBS supplemented media. Cells were seeded at a concentration of 15000 cells/well in a 96 well plate. Test compound dilution at different concentrations (final concentrations of the test compound: 1 uM, 0.3 uM, 0.1 uM, 0.037 uM, 0.012 uM, 0.0041 uM, 0.0014 uM and 0.0005 uM) were added after 24 hours. Growth was assessed using Cell Counting Kit-8 (CCK-8) (Dojindo, Cat#CK04) after the test compound were incubated for 72 h. Absorbance was read at the wave length 450 nm on Multiskan MK3 machine (Thermo).
as §2

PI3K-β = PI3K-β (Homo sapiens, UniProt P42338); assay: Transcreener KINASE Assay, fluorescent determination of PI3K enzyme activity; assay type: biochemical; details: for inhibition at 1 µM: read-out: PI3K-β IH % (inhibition rate);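 for all read-outs here: recombinant PI3K enzyme reaction, 80 min at room temperature, ADP formed detected by far-red competitive fluorescence polarization immunoassay, inhibition relative to ADP in 2% DMSO control wells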
Chain of PI3K-β (P42338 whole entry, looked up): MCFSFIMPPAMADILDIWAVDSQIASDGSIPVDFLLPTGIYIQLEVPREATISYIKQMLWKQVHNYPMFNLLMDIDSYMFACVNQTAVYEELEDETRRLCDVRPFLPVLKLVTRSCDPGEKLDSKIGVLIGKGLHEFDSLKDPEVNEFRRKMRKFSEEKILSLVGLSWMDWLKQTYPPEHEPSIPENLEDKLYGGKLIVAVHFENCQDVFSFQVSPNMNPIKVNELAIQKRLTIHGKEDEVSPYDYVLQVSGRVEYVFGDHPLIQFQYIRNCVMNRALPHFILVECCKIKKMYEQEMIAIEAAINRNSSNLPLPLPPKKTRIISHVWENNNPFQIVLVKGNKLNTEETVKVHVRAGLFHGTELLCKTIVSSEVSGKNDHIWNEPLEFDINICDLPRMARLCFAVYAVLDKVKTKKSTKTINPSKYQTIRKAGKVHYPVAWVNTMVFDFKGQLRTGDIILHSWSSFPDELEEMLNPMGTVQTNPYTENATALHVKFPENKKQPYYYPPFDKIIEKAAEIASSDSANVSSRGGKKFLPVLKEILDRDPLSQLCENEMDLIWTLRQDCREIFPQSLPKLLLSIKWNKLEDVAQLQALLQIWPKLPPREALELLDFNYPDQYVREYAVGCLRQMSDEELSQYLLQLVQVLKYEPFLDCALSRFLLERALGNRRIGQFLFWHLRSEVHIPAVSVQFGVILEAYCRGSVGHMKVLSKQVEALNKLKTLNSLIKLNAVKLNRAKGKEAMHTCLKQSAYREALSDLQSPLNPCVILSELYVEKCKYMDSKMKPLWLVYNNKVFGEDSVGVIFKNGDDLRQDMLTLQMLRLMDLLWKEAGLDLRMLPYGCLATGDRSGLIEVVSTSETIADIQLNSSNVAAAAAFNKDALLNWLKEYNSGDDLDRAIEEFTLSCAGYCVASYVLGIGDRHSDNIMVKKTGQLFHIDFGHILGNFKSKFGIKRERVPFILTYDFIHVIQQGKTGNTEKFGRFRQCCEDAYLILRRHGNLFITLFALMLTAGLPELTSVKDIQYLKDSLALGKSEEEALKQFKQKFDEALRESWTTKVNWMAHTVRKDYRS
Experimental: as §1, §2

[3] = Ramos cells, anti-IgM stimulation
[4] = human whole blood, anti-human IgE stimulation, CD63

Chain of PI3K-α (p110α/p85α) (P42336 whole entry, species assumed): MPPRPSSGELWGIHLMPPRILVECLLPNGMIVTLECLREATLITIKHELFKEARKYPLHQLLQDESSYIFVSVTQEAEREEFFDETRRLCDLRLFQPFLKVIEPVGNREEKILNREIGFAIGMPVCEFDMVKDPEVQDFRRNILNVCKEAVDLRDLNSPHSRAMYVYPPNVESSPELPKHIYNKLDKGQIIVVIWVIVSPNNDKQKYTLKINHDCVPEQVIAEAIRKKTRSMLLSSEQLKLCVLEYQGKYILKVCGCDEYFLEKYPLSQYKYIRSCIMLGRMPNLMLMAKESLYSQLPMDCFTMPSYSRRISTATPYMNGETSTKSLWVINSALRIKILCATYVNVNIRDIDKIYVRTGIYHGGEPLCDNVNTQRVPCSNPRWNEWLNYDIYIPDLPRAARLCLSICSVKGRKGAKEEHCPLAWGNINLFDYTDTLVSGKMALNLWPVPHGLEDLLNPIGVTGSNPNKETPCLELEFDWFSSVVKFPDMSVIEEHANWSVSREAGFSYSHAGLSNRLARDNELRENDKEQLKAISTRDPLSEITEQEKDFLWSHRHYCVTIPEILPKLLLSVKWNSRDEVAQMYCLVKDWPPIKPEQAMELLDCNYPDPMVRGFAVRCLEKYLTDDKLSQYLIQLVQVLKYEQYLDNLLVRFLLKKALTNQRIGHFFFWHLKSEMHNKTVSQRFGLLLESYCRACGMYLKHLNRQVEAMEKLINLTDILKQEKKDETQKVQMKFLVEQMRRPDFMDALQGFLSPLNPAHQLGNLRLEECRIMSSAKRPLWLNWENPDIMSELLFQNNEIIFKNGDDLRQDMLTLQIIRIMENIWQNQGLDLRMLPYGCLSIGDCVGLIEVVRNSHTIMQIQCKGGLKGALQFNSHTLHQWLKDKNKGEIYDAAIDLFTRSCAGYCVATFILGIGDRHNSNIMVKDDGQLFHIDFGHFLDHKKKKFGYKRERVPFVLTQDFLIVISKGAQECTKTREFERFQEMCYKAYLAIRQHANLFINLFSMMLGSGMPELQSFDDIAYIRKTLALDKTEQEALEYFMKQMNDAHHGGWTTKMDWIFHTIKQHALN
Chain of PI3K-α (p110α/p85α) (P27986 whole entry partner, species assumed): as the sequence (P27986 whole entry partner, species assumed) above

Row | inhibition at 1 µM (PI3K-β; at 1 μM) [%] | SMILES | IC50 (PI3K-δ (p110δ/p85α)) [nM] | IC50 (PI3K-γ (p110γ)) [nM] | IC50 [1, 3] [nM] | IC50 [2, 4] [nM] | IC50 (PI3K-β) [nM] | also measured
1 |  | C[C@H](Nc1ncnc(N)c1-c1nn[nH]n1)c1cc2ncc(Cl)n2nc1-c1ccccc1 [Compound 21, (S)—N^4-(1-(3-chloro-6-phenylimidazo[1,2-b]pyridazin-7-yl)ethyl)-5-(2H-tetrazol-5-yl)pyrimidine-4,6-diamine] | 6 | 424 |  |  |  | inhibition at 1 µM (PI3K-α (p110α/p85α); at 1 μM, read-out: PI3K-α IH % (inhibition rate)): 21.7%
2 |  | C[C@H](Nc1ncnc(N)c1C#N)c1cc2ncc(Cl)n2nc1-c1cccc(S(C)(=O)=O)c1 [Compound 46] | 4 | 50 | 6 |  | 1320 | 
3 |  | CCC(Nc1ncnc2[nH]cnc12)c1cc2ncc(Cl)n2nc1-c1ccccc1F (single isomer, unassigned) [Compound 25] |  |  | 5 | 37 |  | IC50 (SU-DHL-6 cells): 32 nM; PI3K-β IH % (inhibition rate) (PI3K-β; at 1 μM): 22.8%
4 | 9.5 | C[C@@H](c1cc2ncc(Cl)n2nc1-c1ccccc1)n1ccc2c(N)ncnc21 [Compound 27, (S)-7-(1-(3-chloro-6-phenylimidazo[1,2-b]pyridazin-7-yl)ethyl)-7H-pyrrolo[2,3-d]pyrimidin-4-amine] | 25 |  |  | 565 |  | inhibition at 1 µM (PI3K-γ (p110γ); at 1 μM): 24.9%
5 | 24.4 | C[C@H](Nc1ncnc(N)c1C#N)c1cc2ncc(Cl)n2nc1-c1ccc2cccnc2c1 [Compound 61] | 7 |  | 41 | 109 |  | inhibition at 1 µM (PI3K-γ (p110γ); at 1 μM): 26.5%
6 |  | CC(Nc1ncnc(N)c1C#N)c1cc2ncc(Cl)n2nc1-c1ccccc1 (racemic) [Compound 2, 4-amino-6-((1-(3-chloro-6-phenylimidazo[1,2-b]pyridazin-7-yl)ethyl)amino)pyrimidine-5-carbonitrile] |  |  |  |  |  | IC50 (PI3K-α (p110α/p85α)): > 1000 nM
7 |  | C[C@H](Nc1ncnc(N)c1C#N)c1cc2ncc(Cl)n2nc1-c1cc(F)cc(F)c1 [Compound 30, (S)-4-amino-6-((1-(3-chloro-6-(3,5-difluorophenyl)imidazo[1,2-b]pyridazin-7-yl)ethyl)amino)pyrimidine-5-carbonitrile] | 3 | 410 |  |  | 1040 | IC50 ([1]; Ramos): 1 nM; IC50 ([2]; Homo sapiens): 6 nM
8 | 49.4 | C[C@H](Nc1ncnc(N)c1C#N)c1cc2ncc(Cl)n2nc1-c1ccc2scnc2c1 [Compound 74] | 9 |  | 23 |  |  | inhibition at 1 µM (PI3K-γ (p110γ); at 1 μM): 40.8%
9 |  | Cc1ccccc1-c1nn2c(Cl)cnc2cc1[C@H](C)Nc1ncnc(N)c1C#N [Compound 31, (S)-4-amino-6-((1-(3-chloro-6-(o-tolyl)imidazo[1,2-b]pyridazin-7-yl)ethyl)amino)pyrimidine-5-carbonitrile] | 4 | 146 | 2 |  | 371 | 
10 |  | C[C@H](Nc1ncnc(N)c1C#N)c1cc2ncc(Cl)n2nc1-c1cccc(C#N)c1 [Compound 65] | 2 | 611 | 2 | 14 | 1260 | 
11 | 67.6 | C[C@H](Nc1ncnc(N)c1C#N)c1cc2ncc(Cl)n2nc1-c1cc(F)ccc1F [Compound 35] | 4 |  | 13 |  |  | inhibition at 1 µM (PI3K-γ (p110γ); at 1 μM): 64.6%
12 |  | C[C@H](Nc1ncnc(N)c1C#N)c1cc2ncc(Cl)n2nc1-c1ccccc1C(F)(F)F [Compound 45] | 3 | 195 | 3 |  | 450 | 
13 |  | C[C@H](Nc1ncnc(N)c1C#N)c1cc2ncc(Cl)n2nc1-c1cccnc1 [Compound 77] | 2 | 436 | 3 |  | 238 | 
14 |  | Cc1cccc(-c2nn3c(Cl)cnc3cc2[C@H](C)Nc2ncnc(N)c2C#N)c1 [Compound 62] | 2 | 247 | 1 | 15 | 1230 | 
15 |  | C[C@H](Nc1ncnc(N)c1C#N)c1cc2ncc(Cl)n2nc1-c1cc(F)cc(Cl)c1 [Compound 66] | 9 | 1120 | 2 | 262 | 4300 | 
16 |  | C[C@H](Nc1ncnc(N)c1C#N)c1cc2ncc(Cl)n2nc1-c1cccc(C(F)(F)F)c1 [Compound 48] | 9 | 1330 | 8 | 41 | 4080 | 
17 |  | C[C@H](Nc1ncnc(N)c1C#N)c1cc2ncc(Cl)n2nc1-c1cccc(Cl)c1 [Compound 41] | 3 | 499 | 12 | 18 | 1330 | 
18 |  | CCC(Nc1ncnc(N)c1C#N)c1cc2ncc(Cl)n2nc1-c1ccccn1 (stereo not shown) [Compound 29] | 3 |  |  |  | 174 | IC50 (SU-DHL-6 cells): 11 nM; PI3K-γ IH % (inhibition rate) (PI3K-γ (p110γ); at 1 μM): 35%
19 |  | Cc1cc(F)cc(-c2nn3c(Cl)cnc3cc2[C@H](C)Nc2ncnc(N)c2C#N)c1 [Compound 67] | 5 | 1140 | 3 | 10 | 3580 | 
20 |  | C[C@H](Nc1ncnc(N)c1C#N)c1cc2ncc(Cl)n2nc1-c1ccccc1S(C)(=O)=O [Compound 68] | 2 | 345 | 1 | 2 | 963 | 
21 |  | C[C@H](Nc1ncnc(N)c1Cl)c1cc2ncc(Cl)n2nc1-c1ccccc1 [Compound 40] | 2 | > 333 | 3 |  | 277 | 
22 |  | Cc1nc2cc([C@H](C)Nc3ncnc(N)c3C#N)c(-c3ccccc3)nn2c1Cl [Compound 59] | 5 | 2390 | 6 | 100 | 1160 | 
23 |  | C[C@H](Nc1ncnc(N)c1C#N)c1cc2ncc(Cl)n2nc1-c1cccc(F)c1F [Compound 36] | 3 | 243 | 1 |  | 1310 | 
24 | -14.1 | COc1cc(-c2c(N)ncnc2N[C@@H](C)c2cc3ncc(Cl)n3nc2-c2ccccc2)ccn1 [Compound 50] |  |  |  |  |  | inhibition at 1 µM (PI3K-δ (p110δ/p85α); at 1 μM, read-out: PI3K-δ IH % (inhibition rate)): 68.9%; inhibition at 1 µM (PI3K-γ (p110γ); at 1 μM): 5.5%
25 | 60.8 | C[C@H](Nc1ncnc(N)c1C#N)c1cc2ncc(Cl)n2nc1-c1ccncc1 [Compound 73] | 82 |  |  |  |  | inhibition at 1 µM (PI3K-γ (p110γ); at 1 μM): 62.8%

Row | SMILES | inhibition at 1 µM (PI3K-β; at 1 μM) [%] | IC50 (PI3K-δ (p110δ/p85α)) [nM] | IC50 (PI3K-γ (p110γ)) [nM] | IC50 [1, 3] [nM] | IC50 [2, 4] [nM] | IC50 (PI3K-β) [nM] | also measured
26 | CCC(Nc1ncnc(N)c1C#N)c1cc2ncc(Cl)n2nc1-c1cccc(F)c1 (stereo not shown) [Compound 24] | 46.6 | 2 |  | 7 | 11 |  | IC50 (SU-DHL-6 cells): 11 nM; inhibition at 1 µM (PI3K-γ (p110γ); at 1 μM): 44.5%
27 | C[C@H](Nc1ncnc(N)c1C(N)=O)c1cc2ncc(Cl)n2nc1-c1ccccc1 [Compound 53, (S)-4-amino-6-((1-(3-chloro-6-phenylimidazo[1,2-b]pyridazin-7-yl)ethyl)amino)pyrimidine-5-carboxamide] | 30.5 |  |  | 16 |  |  | inhibition at 1 µM (PI3K-γ (p110γ); at 1 μM): 34.3%
28 | C[C@H](Nc1ncnc2[nH]cnc12)c1cc2ncc(Cl)n2nc1-c1cccc(F)c1 [Compound 16] | 27.5 | 3 | 326 |  |  |  | IC50 (PI3K-α (p110α/p85α)): > 1000 nM
29 | Cc1nc(N)c(C#N)c(N[C@@H](C)c2cc3ncc(Cl)n3nc2-c2ccccc2)n1 [Compound 32] | 23.8 | 15 | 243 | 20 |  |  | 

Source: patent US10208066B2, “Imidazopyridazine compounds and their use” (HUTCHISON MEDIPHARMA LIMITED, priority 2014, dated 2019)
